Where a SMILES comes first, the peptide text is derived from it.

As a reminder, the logP is a log measure of how a compound divides between an organic and an aqueous phase. Higher therefore signals a more lipophilic compound.

`CC(C)(C)c1ccc(C(O)CCCN2CCC(C(O)c3ccccc3)CC2)cc1` (configuration not stated) had a logP of 4.06.

With `Clc1cc(Cl)c(-c2c(Cl)ccc(Cl)c2Cl)c(Cl)c1`, the lipophilicity (logP) was found to be 6.75.

Molecule `CC=C(C)C1(C)CC(O)=C(C(CCC)=NOCC)C(=O)O1` (configuration not stated) yielded a logP of 3.4.

Molecule `CCOC(=O)C1=C(C)NC(C)=C(C(=O)OC)C1C` (configuration not stated) yielded a logP of 3.27.

For the molecule `CC(C)=CC1C(C(=O)OCc2cccc(I)c2)C1(C)C` (configuration not stated), the logP was found to be 6.61.

For the molecule `S=C=NC(c1ccccc1)c1ccccc1`, the logP is 5.09.

The molecule `CC(=O)OCOC(=O)N(C)N=Nc1ccc(C#N)cc1` returned a logP of 2.08.

Molecule `CCC(C)C(NC(=O)C(NC(=O)C(N)CC(C)C)C(C)O)C(=O)O` (stereo not drawn) (H-Leu-Thr-Ile-OH; configuration not given here) returned a logP of -2.3.

For `CCOP(=O)(OCC)C(C)(C)[N+]([O-])=Cc1ccncc1`, the logP is 0.32.

As for `Cc1nc2ccccc2c(=O)n1CC(=O)NCc1ccccc1`, the logP was 1.78.

As for `Cc1cc(=O)oc2c1c(C)cc1occ(C)c12`, the logP is 3.04.

`COC(=O)C(C)NP(=O)(OCC1C=CC(n2cc(C)c(=O)[nH]c2=O)O1)Oc1ccc(C(C)=O)cc1` (configuration not stated) returned a logP of 0.9.

In turn, `COC1C(O)CC(=O)OC(C)CC=CC=CC(=O)C(C)CC(CC=O)C1OC1OC(C)C(OC2CC(C)(O)C(OC(=O)CC(C)C)C(C)O2)C(N(C)C)C1O` (configuration not stated) showed a logP of 1.86.

In turn, `NCC(=O)NC(Cc1ccccc1)C(=O)NC(Cc1ccccc1)C(=O)O` (stereo not drawn) (H-Gly-Phe-Phe-OH; configuration not given here) gave a logP of -1.33.

Molecule `CC(=O)c1cc2cccc3ccc4cccc1c4c32` registered a logP of 4.16.

As to `CCCCOc1ccccc1NC(=O)OCCN1CCCCC1`, the logP was 4.79.

As to `CN1C(C(=O)Nc2ccccn2)=C(O)c2sc(Cl)cc2S1(=O)=O`, the logP was 2.62.

Turning to `C=CCNc1ncnc2nc[nH]c12`, the logP was determined as 1.09.

As to `CC(=O)NC(CCCCNC(=O)N(CCCl)N=O)C(=O)NCc1ccccc1` (configuration not stated), the logP was 1.54.

As for `CCn1ccnc1CC1COc2ccccc2O1` (configuration not stated), the logP came to 2.31.

`CC(=O)OC1CCCC2(C)CCC(C(C)(C)OC(C)=O)CC12` (configuration not stated) gave a logP of 5.06.

On to `Cc1oc2c(C)cc3c(C)cc(=O)[nH]c3c2c1C`, for which the logP came out at 3.5.

For the molecule `COc1ccc(CCNCC(O)COc2ccc(-c3nc(C)c(C)[nH]3)cc2)cc1OC` (configuration not stated), the log partition coefficient (logP) came to 3.22.

In turn, `CC(C)(C)c1cc(O)cc(C(C)(C)C)c1` showed a logP of 4.64.

`CCCCNc1ncnc2c1ncn2C1OC(CO)C(O)C1O` (configuration not stated): the logP turned out to be 1.1.

Take `O=c1ccc2cc3ccsc3cc2o1`: the logP turned out to be 2.27.

`O=C1CCC(c2ccc(-n3ccnc3)cc2)=NN1` had a logP of 0.96.

`COc1cc(OC)c2c(c1)OC(c1ccc(OC)c(OC)c1)C(OC)C2` (configuration not stated) returned a logP of 3.68.

Molecule `CCCC(=O)NCCCCCN(O)C(=O)CCC(=O)NCCCCCN(O)C(=O)CCC(=O)NCCCCCN(O)C(C)=O` registered a logP of 0.42.

As to `Clc1ccc(N2CCN(CCn3nc4ccccc4n3)CC2)cc1`, the logP amounted to 4.05.

`O=C(O)Cc1ccccc1Nc1c(F)cccc1F` registered a logP of 3.57.

Regarding `CC(C)CC(N)C(=O)NC(CC(C)C)C(=O)N1CCCC1C(=O)NC(CC(C)C)C(=O)O` (configuration not stated) (H-LLPL-OH; configuration not given here), the logP is -1.

The molecule `OC(CNCC(O)C1CCc2cc(F)ccc2O1)C1CCc2cc(F)ccc2O1` (configuration not stated) showed a logP of 4.04.

On to `CCOC(=O)C(=Cc1ccccc1)S(=O)(=O)c1ccc([N+](=O)[O-])cc1`, for which the logP came to 3.2.

As for `CC(C)CC(NC(=O)C(NC(=O)C(CO)NC(=O)C(CC(C)C)NC(=O)CN)C(C)C)C(=O)O` (configuration not stated) (H-GLSVL-OH; configuration not given here), the logP is -1.64.

`CCOCCOCCOc1ccc(NC(=O)NC23CC4CC(CC(C4)C2)C3)cc1`: the logP came out at 3.9.

`NC(=O)C(CCCN1CC2CCC(CC2)C1)(c1ccccc1)c1ccccn1` (configuration not stated) registered a logP of 2.88.

With `COc1ccc(C=C2C(=O)NC(=S)NC2=O)cc1`, the logP came to 0.76.

Take `CCCCCCNC1=NS(=O)N=C1NCCSCc1ccc(CN(C)C)o1` (configuration not stated): the logP came to 3.46.

`CCCOc1ccc(NC(=O)OCCN2CCCCC2)cc1` returned a logP of 4.2.

In the case of `C=CC1(C)C=C2CCC3C(C)(CO)CCCC3(C)C2CC1` (configuration not stated), the logP came to 6.85.

`CCCCNC1CCc2c(OC)cccc2C1C` (configuration not stated) registered a logP of 3.73.

In the case of `CC(N)C(=O)NC(Cc1c[nH]c2ccccc12)C(=O)O` (configuration not stated), the logP was -2.21.

For the molecule `CNC(=O)c1cn2c(C)c(C)nc2c2c1CCC(c1ccccc1)O2` (configuration not stated), the logP was 3.6.

For the molecule `COc1c2oc(=O)ccc2cc2ccsc12`, the logP stood at 2.66.

`COc1cc2ncnc(Nc3ccc(F)cc3)c2cc1OC` showed a logP of 2.87.

With `O=C(c1ccccn1)n1c(=O)[nH]cc(F)c1=O`, the logP is -0.06.

The molecule `Cc1cccc(C)c1CCc1cnc[nH]1` returned a logP of 2.91.

Molecule `O=C1c2ccc(O)cc2OCN1CCO[N+](=O)[O-]` registered a logP of 1.63.

`CCCCNc1ncnc2nc[nH]c12` yielded a logP of 2.

The molecule `COc1ccc(C2Cc3cc(C(F)(F)F)ccc3N(CCN(C)C)C(=O)C2SC(C)=O)cc1` (configuration not stated) displayed a logP of 5.4.

Regarding `CCNC(=NC#N)NS(=O)(=O)c1cnccc1NC1CCCCC1`, the logP worked out at 0.94.

The molecule `OCC1OC(n2cnc3c(Nc4ccccc4)ncnc32)C(O)C1O` (configuration not stated) showed a logP of 1.28.

On to `O=C1CNC(=O)C(Cc2c[nH]c3ccccc23)N1` (configuration not stated), for which the logP was determined as 0.07.

As for `NC(Cc1ccccc1)C(=O)NC(Cc1ccccc1)C(=O)NC(Cc1ccccc1)C(=O)O` (stereo not drawn) (H-Phe-Phe-Phe-OH; configuration not given here), the logP was -0.02.

`COC(=O)NC(=O)Cn1c(C)nc2ccccc2c1=O` came in with a logP of 0.4.

With `CCOc1cc2ncnc(Nc3cc(F)cc(C(F)(F)F)c3)c2cc1OCC`, the logP was determined as 5.49.

Consider `CC(C)NC(=NC#N)NS(=O)(=O)c1cnccc1Nc1ccc(Cl)cc1`, for which the logP was 2.37.

On to `O=C(Cn1cnc([N+](=O)[O-])n1)NCCCO`, for which the logP was -1.27.

In the case of `CCc1c(O)c(=O)ccn1CCCO`, the logP is -0.44.

Molecule `NC(Cc1ccccc1)C(=O)NC(Cc1ccccc1)C(=O)NCC(=O)NC(Cc1ccccc1)C(=O)O` (configuration not stated) (H-FFGF-OH; configuration not given here) yielded a logP of 0.17.

In turn, `COc1ccc(C2Cc3ccccc3N(CCN(C)C)C(=O)C2C)cc1` (configuration not stated) came in with a logP of 4.5.

`Cc1nc2c3c(c(C(=O)N(C)C)cn2c1C(=O)N(C)C)CCC(c1ccccc1)O3` (configuration not stated): the logP worked out at 1.89.

Molecule `CCON=C(C)c1cccc(Oc2nc(OC)cc(OC)n2)c1C(=O)OC` gave a logP of 2.96.

For the molecule `CCC1OC(Cn2cncn2)(c2ccc(Cl)cc2Cl)OC1C` (configuration not stated), the logP came out at 3.41.

Consider `COc1ccc(S(C)(=O)=O)cc1CNC1CCCNC1c1ccccc1` (configuration not stated), for which the logP was found to be 1.9.

For `CC(C)(C)[N+]([O-])=Cc1ccc(C(=O)O)cc1`, the logP is 1.1.

In turn, `COC(=O)C(C)NP(=O)(OCC1C=CC(n2cc(C)c(=O)[nH]c2=O)O1)Oc1cccc(I)c1` (configuration not stated) had a logP of 1.78.

As for `O=C(NCC(F)(F)F)NS(=O)(=O)c1cnccc1NC1CCCCCCC1`, the logP was found to be 4.22.

`COc1cc(SC)ccc1-c1cn2cccnc2n1` had a logP of 2.44.

`O=C(Nc1ccccc1C(=O)O)c1ccccc1O` had a logP of 3.94.

Regarding `Cc1cc2cc3ccc(=O)oc3c(C)c2o1`, the logP was 2.93.

For the molecule `CC(C)NC(=NC#N)NS(=O)(=O)c1cnccc1Nc1ccc(Cl)c(C(F)(F)F)c1`, the logP was found to be 3.27.

In the case of `CC(C)CC(N)C(=O)N1CCCC1C(=O)O` (stereo not drawn) (H-Leu-Pro-OH; configuration not given here), the logP is -1.76.

Molecule `CC(C)SCc1cc(=O)c(O)co1` had a logP of 1.17.

For the molecule `CN(C)c1cc[n+]([O-])cc1`, the logP was -0.9.

Molecule `Cn1c(N)nc2c3cccnc3ccc21` gave a logP of 1.47.

In the case of `O=C1C=C(N2CCCC2)C(=O)N1c1ccc(Cl)cc1`, the logP was found to be 3.

`O=C(c1c(O)c2ccc(Cl)cc2[nH]c1=O)C1CC1`: the logP turned out to be 2.35.

As for `CN1CC(O)N(C(=O)NCCCl)C1=O` (configuration not stated), the logP amounted to 0.71.

Regarding `CCOP(=O)(OCC)C(C)(C)[N+]([O-])=Cc1cccnc1`, the logP stood at 0.41.

In turn, `CC1(C)C2Cc3ssc(=S)c3C1C2` (configuration not stated) yielded a lipophilicity (logP) of 3.7.

As for `CCCOc1cccc(NC(=O)OCCN2CCCCC2)c1`, the logP was 4.48.

With `CC1CC2C3CCC4=CC(=O)C=CC4(C)C3(F)C(O)CC2(C)C1(O)C(=O)COC(=O)CC(C)(C)C` (configuration not stated), the logP came to 4.3.

For `CC(C)(C)n1cc(C(=O)O)c(=O)c2cc(F)c(N3CC4CC3CN4)nc21` (configuration not stated), the logP is -0.41.

`CC(C)c1cccc(C(C)C)c1NC(=O)CC(=O)c1ccccc1` had a logP of 2.87.

The molecule `CCCCCOCCCNc1[nH]cnc2ncnc1-2` displayed a logP of 2.74.

For the molecule `CCCCC(Nc1ccc([N+](=O)[O-])cc1[N+](=O)[O-])C(=O)O` (configuration not stated), the logP was found to be 3.25.

Consider `CCC(C)c1cnc(CC(C)C)c(=O)n1O` (configuration not stated), for which the logP amounted to 1.81.

As to `CCOC(=O)C(C)c1ccc2cc(OC)ccc2c1` (configuration not stated), the logP came to 3.51.

The molecule `CCOC(=O)c1c[nH]c2ccccc12` gave a logP of 3.04.

As for `CCON=C(CC)C1=C(O)CC(c2cccc(Oc3ccc(Cl)c(Cl)c3)c2)CC1=O` (configuration not stated), the logP worked out at 6.32.

For the molecule `CC(=O)c1ccc2ccc3cccc4ccc1c2c34`, the logP came to 4.18.

The molecule `CCNc1ccc(NC(=O)N(C)OC)cc1` displayed a logP of 0.83.

In turn, `CCCOCCCNc1[nH]cnc2ncnc1-2` gave a logP of 1.74.

`CON(C)C(=O)Nc1ccc(C2CCCCC2)cc1`: the logP turned out to be 4.08.

Take `CC[C@H](C)C(=O)O[C@H]1C[C@H](O)C=C2C=C[C@H](C)[C@H](CC[C@@H](O)C[C@@H](O)CC(=O)O)[C@H]21`: the logP was found to be 2.18.

The molecule `Cc1c(C)c2ccc3occ(C)c3c2oc1=O` returned a logP of 3.34.

In turn, `Cc1cccc(C)c1OCC1CN=C(N)O1` (configuration not stated) gave a logP of 2.

Regarding `COC1CC(OC2C(O)CC(OC3CCC4(C)C(CCC5C4CCC4(C)C(C6=CC(=O)OC6)CCC54O)C3)OC2C)OC(C)C1OC1CC(O)C(O)C(C)O1` (configuration not stated), the logP amounted to 3.11.

Molecule `ClCC1(C(Cl)Cl)C2C(Cl)CC1(C(Cl)Cl)C(Cl)C2Cl` (configuration not stated) yielded a logP of 5.19.

On to `Clc1cc(Cl)c2c(oc3c(Cl)ccc(Cl)c32)c1Cl`, for which the logP stood at 6.34.

Source of the values: the OPERA property sets (Mansouri et al. 2018).
